According to the supplement of paper PMC10307832:

Tests used:
Experiment in all cases: relative viability (nuclei count vs DMSO), 5 days (fraction); higher = more cells survive
17-AAG + Phenformin = compound: C=CCNC1=C2C[C@@H](C)C[C@H](OC)[C@H](O)[C@@H](C)/C=C(\C)[C@H](OC(N)=O)[C@@H](OC)/C=C\C=C(/C)C(=O)NC(=CC1=O)C2=O [17-AAG] + N=C(N)NC(=N)NCCc1ccccc1 [Phenformin] (partner 250 µM)
Outline: (§1)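 A single step with final 0.05% Triton X-100, 1% formaldehyde and 1 ug/ml Hoechst fixed the cells and stained nuclei 5 days after treatment. Lung cancer cell lines in 1536-well plates had been treated by pin tool the day after seeding with one drug alone or a fixed anchor-drug dose plus five library-drug doses (not always all listed) in √10 steps, and nuclei were counted on 4× images. Relative viability is the ratio of nuclei in treated wells to nuclei in vehicle wells, taken as the median of duplicate plates.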

17-AAG + Trametinib = compound: C=CCNC1=C2C[C@@H](C)C[C@H](OC)[C@H](O)[C@@H](C)/C=C(\C)[C@H](OC(N)=O)[C@@H](OC)/C=C\C=C(/C)C(=O)NC(=CC1=O)C2=O [17-AAG] + CC(=O)Nc1cccc(-n2c(=O)n(C3CC3)c(=O)c3c(Nc4ccc(I)cc4F)n(C)c(=O)c(C)c32)c1 [Trametinib] (partner 0.02 µM)
Outline: as §1

17-AAG + OSI-027 = compound: C=CCNC1=C2C[C@@H](C)C[C@H](OC)[C@H](O)[C@@H](C)/C=C(\C)[C@H](OC(N)=O)[C@@H](OC)/C=C\C=C(/C)C(=O)NC(=CC1=O)C2=O [17-AAG] + COc1cccc2cc(-c3nc([C@H]4CC[C@H](C(=O)O)CC4)n4ncnc(N)c34)[nH]c12 [OSI-027] (partner 0.5 µM)
Outline: as §1

17-AAG + Crizotinib = compound: C=CCNC1=C2C[C@@H](C)C[C@H](OC)[C@H](O)[C@@H](C)/C=C(\C)[C@H](OC(N)=O)[C@@H](OC)/C=C\C=C(/C)C(=O)NC(=CC1=O)C2=O [17-AAG] + C[C@@H](Oc1cc(-c2cnn(C3CCNCC3)c2)cnc1N)c1c(Cl)ccc(F)c1Cl [Crizotinib] (partner 1 µM)
Outline: as §1

Cell Line	relative viability (17-AAG + Phenformin; first compound 0.00128 µM)	relative viability (17-AAG + Phenformin; first compound 0.004048 µM)	relative viability (17-AAG + Phenformin; first compound 0.0128 µM)	relative viability (17-AAG + Phenformin; first compound 0.04048 µM)	relative viability (17-AAG + Phenformin; first compound 0.128 µM)	relative viability (17-AAG + Trametinib; first compound 0.00128 µM)	relative viability (17-AAG + Trametinib; first compound 0.004048 µM)	relative viability (17-AAG + Trametinib; first compound 0.0128 µM)	relative viability (17-AAG + Trametinib; first compound 0.04048 µM)	relative viability (17-AAG + Trametinib; first compound 0.128 µM)	relative viability (17-AAG + OSI-027; first compound 0.00128 µM)	relative viability (17-AAG + OSI-027; first compound 0.004048 µM)	relative viability (17-AAG + OSI-027; first compound 0.0128 µM)	relative viability (17-AAG + OSI-027; first compound 0.04048 µM)	relative viability (17-AAG + OSI-027; first compound 0.128 µM)	relative viability (17-AAG + Crizotinib; first compound 0.00128 µM)	relative viability (17-AAG + Crizotinib; first compound 0.004048 µM)	relative viability (17-AAG + Crizotinib; first compound 0.0128 µM)	relative viability (17-AAG + Crizotinib; first compound 0.04048 µM)	relative viability (17-AAG + Crizotinib; first compound 0.128 µM)
NCI-H2023	0.416	0.226	0.0687	0.0792	0.0691	0.557	0.266	0.0867	0.0826	0.0692	0.328	0.221	0.0577	0.0589	0.0633	0.627	0.575	0.128	0.0736	0.063
NCI-H2085	0.688	0.734	0.68	0.595	0.406	0.608	0.607	0.604	0.594	0.314	0.845	0.859	0.763	0.521	0.29	0.913	0.71	0.971	0.924	0.637
NCI-H2087	0.394	0.232	0.138	0.125	0.105	0.206	0.213	0.184	0.115	0.124	0.483	0.325	0.124	0.15	0.0762	0.861	0.66	0.321	0.213	0.148
NCI-H2126	0.576	0.563	0.305	0.289	0.271	0.576	0.568	0.625	0.594	0.443	0.778	0.758	0.479	0.231	0.291	1.08	1.02	1.01	0.951	0.43
NCI-H2170	0.408	0.453	0.297	0.163	0.135	0.958	0.843	0.91	0.402	0.134	0.652	0.585	0.385	0.187	0.118	1.29	1.19	0.959	0.588	0.203
NCI-H2228	0.337	0.185	0.0958	0.099	0.0688	0.378	0.232	0.102	0.113	0.144	0.583	0.265	0.104	0.0876	0.0979	0.528	0.245	0.176	0.174	0.141
NCI-H2347	0.466	0.38	0.275	0.187	0.191	0.335	0.275	0.351	0.288	0.321	0.323	0.395	0.464	0.241	0.201	0.747	0.791	0.738	0.486	0.317
NCI-H2405	0.398	0.383	0.33	0.209	0.185	0.663	0.482	0.338	0.204	0.171	0.636	0.686	0.532	0.223	0.181	0.868	0.837	0.922	0.303	0.163
